# Tests used:
# A549 Red-FLuc = assay: Cytotoxicity, cell count method; assay type: cell-based; details: Homo sapiens, 72 hours of incubation
# Protocol: The anti-tumor activity of the compounds of the present invention was evaluated as the effect on the proliferation and survival of tumor cells by counting the number of living cells in presence or absence of the compounds ("cell count method"), and as the effect on the viability and metabolic activity of the cells, by using particular substrates that are converted by cellular enzymes into coloured or luminescent products, proportionally with metabolic activity and state of the cell, such as the MTS tetrazolium compound ("MTS method") or luciferin ("ATP-based method") respectively.
# Cells were seeded at 3 to 5 x 10^4 cells/well density depending on cell lines and maintained at 37°C in 5% CO2. After 24 hours cells were treated with ascending concentrations of the investigational compounds and the reference (5-fluoro-Uracyl) in a range from 0 to 100 µM. Compounds were dissolved in DMSO which final concentration in each well was 0.5% v:v. After 72 h of incubation with compounds, the cells were detached with trypsin and re-suspended in 1 ml of complete medium; the cell number was evaluated using a Z2 Coulter Counter ("cell count method") (Attallah and Johnson, A simple highly sensitive methods for the determination of cell viability using an electronic particle analyzer, Coulter counter J. Immunol. Methods. 1981, 41, 155; Leonardi et al., Activated kinase screening identifies the IKBKE oncogene as a positive regulator of autophagy. Autophagy, 2019, 15, 312). Alternatively, after the 72 hours of incubation with compounds, the MTS solution (CellTiter 96® AQueous One Solution Cell Proliferation Assay) is added to each well and absorbance at 490 nm wavelength is read after 2 hours of incubation ("MTS method"). Results in Tables 8-13, 17, 18 were obtained with the cell count method. Results in Tables 14-15 were obtained with the MTS method. Results in Table 16 were obtained with ATP-based method.
# DDX3X = DDX3X (Homo sapiens, UniProt O00571); assay: Helicase assay (unwinding of 18/36mer dsRNA); assay type: biochemical; set-up: host or cells: 293T cells (transient transfection, anti-HA immunoprecipitation, protein kept on beads); details: 50, 250 and 500 µM, in presence of ATP
# Protocol: The DDX3X protein was obtained by immunoprecipitation from 293T cells (3x10^5) were seeded in 6-well plates and, after 24h, transfected with 1 µg of HA-DDX3 (Addgene plasmid # 44975) by using the Lipofectamine reagent (Thermo Fischer Scientific). After 36 h, cells were lysed in NP-40 Lysis Buffer (20 mM HEPES pH=7.5, 10 mM EGTA pH=8, 40 mM β-glycerolphosphate, 1% NP40, 2.5 mM MgCl2, 2 mM Orthovanadate, 2 mM NaF, 1 mM DTT, and 1X protease inhibitors mixture) and 2 mg of proteins were immunoprecipitated with anti-HA antibodies (Covance) in NP40 lysis buffer. Immunoprecipitated samples were washed twice with lysis buffer and one time in helicase reaction buffer (50 mM Tris HCl pH=8, 1 mM DTT, 5% glycerol, 10 mM MgCl2). Beads were then resuspended in 100 µl in helicase reaction buffer. […]
# Ultimately, reactions were performed in a final volume 100 µl of helicase reaction buffer plus ATP 4 mM, 30 µl of beads used to immunoprecipitate HA-DDX3X, 20 nM of 18/36mer dsRNA and 100 nM of competitor at 37°C for 1 hour and stopped by adding 10 µl of a stopping solution (EDTA 60 mM pH=8, 40% glycerol, 0.6% SDS, 1% Orange G). […] Quantification of the ssRNA was performed by the ImageJ software (version 1.53, NIH). […]
# DDX3X, sequence (O00571 whole entry): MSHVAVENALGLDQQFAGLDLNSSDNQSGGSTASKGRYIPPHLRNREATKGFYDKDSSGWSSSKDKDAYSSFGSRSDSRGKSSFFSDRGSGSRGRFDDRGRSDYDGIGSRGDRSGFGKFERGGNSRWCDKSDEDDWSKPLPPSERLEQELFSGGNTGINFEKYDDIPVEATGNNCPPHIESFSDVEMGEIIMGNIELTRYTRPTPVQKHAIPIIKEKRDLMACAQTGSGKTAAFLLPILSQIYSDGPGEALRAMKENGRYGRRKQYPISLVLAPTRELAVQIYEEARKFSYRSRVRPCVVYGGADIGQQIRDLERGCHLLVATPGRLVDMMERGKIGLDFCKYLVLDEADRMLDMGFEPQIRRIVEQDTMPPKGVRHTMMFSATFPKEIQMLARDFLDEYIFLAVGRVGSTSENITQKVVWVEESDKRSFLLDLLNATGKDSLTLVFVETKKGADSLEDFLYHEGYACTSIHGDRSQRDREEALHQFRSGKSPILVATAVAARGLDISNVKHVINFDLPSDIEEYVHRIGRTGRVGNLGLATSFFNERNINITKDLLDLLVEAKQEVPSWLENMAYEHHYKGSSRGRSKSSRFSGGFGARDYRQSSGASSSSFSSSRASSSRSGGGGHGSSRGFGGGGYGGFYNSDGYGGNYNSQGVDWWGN
smiles,measurement,setting,value
"CCCCc1cn(-c2ccc(-c3nnc(-c4cccc(C(=O)O)c4)o3)cc2)nn1 [Compound 16, 3-(5-(4-(4-butyl-1H-1,2,3-triazol-1-yl)phenyl)-1,3,4-oxadiazol-2-yl)benzoic acid]",IC50,A549 Red-FLuc,18.1 µM
same,inhibitory effect on DDX3X helicase activity,DDX3X,inhibitory effect on DDX3X helicase activity

# Reference: EP4050002A1, “ANTI-PROLIFERATIVE AGENTS” (First Health Pharmaceuticals B.V., priority 2021, dated 2022)
